According to patent publication US10208081B2, “Bile acid derivatives as FXR/TGR5 agonists and methods of use thereof” (Enanta Pharmaceuticals, Inc., priority 2014, dated 2019):

Biological target: human FXR (NR1H4) (Homo sapiens (Human), UniProt Q96RI1)
Assay: Human FXR (NR1H4) Assay (Gal4 promoter driven luciferase reporter, Indigo Bioscience kit IB00601)
Assay type: cell-based
Conditions: for Efficacy (%): efficacy normalized to CDCA set as 100%; for EC50: potency ranges
In short: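 CHO reporter cells expressing human FXR with Gal4-driven, FXR-responsive luciferase treated with compound doses (0.2% DMSO) for 22 hours at 37° C. Luciferase luminescence then measured as surrogate of FXR activation for potency and efficacy.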

Sequence of human FXR (NR1H4) (Q96RI1 whole entry, the tested form may be a part): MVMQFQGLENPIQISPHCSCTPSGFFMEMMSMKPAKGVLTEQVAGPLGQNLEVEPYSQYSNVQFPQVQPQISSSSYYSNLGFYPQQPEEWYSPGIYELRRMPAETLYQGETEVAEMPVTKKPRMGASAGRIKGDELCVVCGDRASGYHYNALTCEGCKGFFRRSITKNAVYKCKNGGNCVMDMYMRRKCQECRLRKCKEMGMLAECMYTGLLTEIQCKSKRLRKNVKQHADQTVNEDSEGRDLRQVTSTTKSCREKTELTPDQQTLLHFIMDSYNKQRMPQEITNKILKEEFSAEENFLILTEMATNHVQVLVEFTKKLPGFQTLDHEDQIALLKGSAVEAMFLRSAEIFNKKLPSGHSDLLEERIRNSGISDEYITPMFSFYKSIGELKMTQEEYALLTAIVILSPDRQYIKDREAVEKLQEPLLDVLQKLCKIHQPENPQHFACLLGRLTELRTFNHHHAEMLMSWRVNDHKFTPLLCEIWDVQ

| SMILES | Efficacy (%) | EC50 [nM] |
| --- | --- | --- |
| CC[C@H]1[C@@H](O)[C@@H]2[C@H](CC[C@]3(C)[C@@H]([C@H](C)CCNC(=O)NS(=O)(=O)c4nccs4)CC[C@@H]23)[C@@]2(C)CC[C@@H](O)C[C@@H]12 [Example 100] | 364 | 1000 to 10000 |
| CC[C@H]1[C@@H](O)[C@@H]2[C@H](CC[C@]3(C)[C@@H]([C@H](C)CCNC(=O)NS(=O)(=O)c4ccc(-c5csc(C)n5)cc4)CC[C@@H]23)[C@@]2(C)CC[C@@H](O)C[C@@H]12 [Example 71] | 419 | 100 to 1000 |
| CC[C@H]1[C@@H](O)[C@@H]2[C@H](CC[C@]3(C)[C@@H]([C@H](C)CCNC(=O)NS(=O)(=O)N4C[C@@H](C)O[C@@H](C)C4)CC[C@@H]23)[C@@]2(C)CC[C@@H](O)C[C@@H]12 [Example 75] | 323 | < 100 |
| CC[C@H]1[C@@H](O)[C@@H]2[C@H](CC[C@]3(C)[C@@H]([C@H](C)CCNC(=O)NS(=O)(=O)c4ccc(OC)cc4)CC[C@@H]23)[C@@]2(C)CC[C@@H](O)C[C@@H]12 [Example 15] | 337 | < 100 |
| CC[C@H]1[C@@H](O)[C@@H]2[C@H](CC[C@]3(C)[C@@H]([C@H](C)CCNC(=O)NS(=O)(=O)N4CCCC4)CC[C@@H]23)[C@@]2(C)CC[C@@H](O)C[C@@H]12 [Example 48] | 420 | < 100 |
| CC[C@H]1[C@@H](O)[C@@H]2[C@H](CC[C@]3(C)[C@@H]([C@H](C)CCCNC(=O)NS(=O)(=O)c4ccc(C(C)(C)C)cc4)CC[C@@H]23)[C@@]2(C)CC[C@@H](O)C[C@@H]12 [Example 12] | 327 | < 100 |
| CC[C@H]1[C@@H](O)[C@@H]2[C@H](CC[C@]3(C)[C@@H]([C@H](C)CCNC(=O)NS(=O)(=O)C[C@]45CCC(CC4=O)C5(C)C)CC[C@@H]23)[C@@]2(C)CC[C@@H](O)C[C@@H]12 [Example 60] | 346 | < 100 |
| CC[C@H]1[C@@H](O)[C@@H]2[C@H](CC[C@]3(C)[C@@H]([C@H](C)CCNC(=O)NS(=O)(=O)c4ccc(Cl)cc4)CC[C@@H]23)[C@@]2(C)CC[C@@H](O)C[C@@H]12 [Example 25] | 357 | < 100 |
| CC[C@H]1[C@@H](O)[C@@H]2[C@H](CC[C@]3(C)[C@@H]([C@H](C)CCNC(=O)NS(=O)(=O)C(F)(F)F)CC[C@@H]23)[C@@]2(C)CC[C@@H](O)C[C@@H]12 [Example 104] | 298 | 1000 to 10000 |
| CC[C@H]1[C@@H](O)[C@@H]2[C@H](CC[C@]3(C)[C@@H]([C@H](C)CCNC(=O)NS(=O)(=O)c4cccc(C(C)(C)C)c4)CC[C@@H]23)[C@@]2(C)CC[C@@H](O)C[C@@H]12 [Example 53] | 263 | < 100 |
| CC[C@H]1[C@@H](O)[C@@H]2[C@H](CC[C@]3(C)[C@@H]([C@H](C)CNC(=O)NS(=O)(=O)c4ccc(C5CCCCC5)cc4)CC[C@@H]23)[C@@]2(C)CC[C@@H](O)C[C@@H]12 [Example 113] | 366 | < 100 |
| CC[C@H]1[C@@H](O)[C@@H]2[C@H](CC[C@]3(C)[C@@H]([C@H](C)CCNC(=O)NS(=O)(=O)N4CC5CC5C4)CC[C@@H]23)[C@@]2(C)CC[C@@H](O)C[C@@H]12 (some centres unmarked) [Example 68] | 458 | < 100 |
| CC[C@H]1[C@@H](O)[C@@H]2[C@H](CC[C@]3(C)[C@@H]([C@H](C)CCCCNS(=O)(=O)c4ccccc4)CC[C@@H]23)[C@@]2(C)CC[C@@H](O)C[C@@H]12 [Example 137] | 105 | 1000 to 10000 |
| CC[C@H]1[C@@H](O)[C@@H]2[C@H](CC[C@]3(C)[C@@H]([C@H](C)CCNS(=O)(=O)CC(=O)O)CC[C@@H]23)[C@@]2(C)CC[C@@H](O)C[C@@H]12 [Example 132] | 7 | 1000 to 10000 |
| CC[C@H]1[C@@H](O)[C@@H]2[C@H](CC[C@]3(C)[C@@H]([C@H](C)CCNC(=O)NS(=O)(=O)c4ccc(C)c(C)c4)CC[C@@H]23)[C@@]2(C)CC[C@@H](O)C[C@@H]12 [Example 17] | 357 | < 100 |
| CC[C@H]1[C@@H](O)[C@@H]2[C@H](CC[C@]3(C)[C@@H]([C@H](C)CCCNS(=O)(=O)[O-])CC[C@@H]23)[C@@]2(C)CC[C@@H](O)C[C@@H]12.[Na+] [Example 135] | 4 | 1000 to 10000 |
| CC[C@H]1[C@@H](O)[C@@H]2[C@H](CC[C@]3(C)[C@@H]([C@H](C)CCNC(=O)NS(=O)(=O)c4cccs4)CC[C@@H]23)[C@@]2(C)CC[C@@H](O)C[C@@H]12 [Example 21] | 402 | 100 to 1000 |

| SMILES | Efficacy (%) | EC50 [nM] |
| --- | --- | --- |
| CC[C@H]1[C@@H](O)[C@@H]2[C@H](CC[C@]3(C)[C@@H]([C@H](C)CCNC(=O)NS(=O)(=O)c4ccc5c(c4)CCC5)CC[C@@H]23)[C@@]2(C)CC[C@@H](O)C[C@@H]12 [Example 55] | 271 | < 100 |
| CC[C@H]1[C@@H](O)[C@@H]2[C@H](CC[C@]3(C)[C@@H]([C@H](C)CNS(=O)(=O)CCC(=O)O)CC[C@@H]23)[C@@]2(C)CC[C@@H](O)C[C@@H]12 [Example 140] | 1 |  |
| CC[C@H]1[C@@H](O)[C@@H]2[C@H](CC[C@]3(C)[C@@H]([C@H](C)CCNC(=O)NS(=O)(=O)c4ccc(C5CCCCC5)cc4)CC[C@@H]23)[C@@]2(C)CC[C@@H](O)C[C@@H]12 [Example 59] | 344 | 100 to 1000 |
| CC[C@H]1[C@@H](O)[C@@H]2[C@H](CC[C@]3(C)[C@@H]([C@H](C)CCNS(=O)(=O)C(C)(C)C(=O)O)CC[C@@H]23)[C@@]2(C)CC[C@@H](O)C[C@@H]12 [Example 138] | 2 | 1000 to 10000 |
| CC[C@H]1[C@@H](O)[C@@H]2[C@H](CC[C@]3(C)[C@@H]([C@H](C)CNC(=O)NS(=O)(=O)c4ccc5ccccc5c4)CC[C@@H]23)[C@@]2(C)CC[C@@H](O)C[C@@H]12 [Example 32] | 309 | < 100 |
| CC[C@H]1[C@@H](O)[C@@H]2[C@H](CC[C@]3(C)[C@@H]([C@H](C)CCNC(=O)NS(=O)(=O)c4ccc(-c5ccccc5)s4)CC[C@@H]23)[C@@]2(C)CC[C@@H](O)C[C@@H]12 [Example 108] | 203 | 100 to 1000 |
| CC[C@H]1[C@@H](O)[C@@H]2[C@H](CC[C@]3(C)[C@@H]([C@H](C)CCNC(=O)NS(=O)(=O)N4[C@H](C)CCC[C@@H]4C)CC[C@@H]23)[C@@]2(C)CC[C@@H](O)C[C@@H]12 [Example 96] | 387 | < 100 |
| CC[C@H]1[C@@H](O)[C@@H]2[C@H](CC[C@]3(C)[C@@H]([C@H](C)CCNC(=O)NS(=O)(=O)c4ccc(-c5ccno5)cc4C)CC[C@@H]23)[C@@]2(C)CC[C@@H](O)C[C@@H]12 [Example 72] | 384 | 100 to 1000 |
| CC[C@H]1[C@@H](O)[C@@H]2[C@H](CC[C@]3(C)[C@@H]([C@H](C)CCCNC(=O)NS(=O)(=O)c4ccc5ccccc5c4)CC[C@@H]23)[C@@]2(C)CC[C@@H](O)C[C@@H]12 [Example 19] | 323 | 100 to 1000 |
| CC[C@H]1[C@@H](O)[C@@H]2[C@H](CC[C@]3(C)[C@@H]([C@H](C)CCNC(=O)NS(=O)(=O)Cc4ccccc4)CC[C@@H]23)[C@@]2(C)CC[C@@H](O)C[C@@H]12 [Example 63] | 452 | 100 to 1000 |
| CC[C@H]1[C@@H](O)[C@@H]2[C@H](CC[C@]3(C)[C@@H]([C@H](C)CCNC(=O)NS(=O)(=O)NC)CC[C@@H]23)[C@@]2(C)CC[C@@H](O)C[C@@H]12 [Example 125] | 256 | 1000 to 10000 |
| CC[C@H]1[C@@H](O)[C@@H]2[C@H](CC[C@]3(C)[C@@H]([C@H](C)CCNC(=O)NS(=O)(=O)N(C)C)CC[C@@H]23)[C@@]2(C)CC[C@@H](O)C[C@@H]12 [Example 91] | 399 | < 100 |
| CC[C@H]1[C@@H](O)[C@@H]2[C@H](CC[C@]3(C)[C@@H]([C@H](C)CCNS(=O)(=O)O)CC[C@@H]23)[C@@]2(C)CC[C@@H](O)C[C@@H]12 [Example 131] | 8 | 1000 to 10000 |
| CC[C@H]1[C@@H](O)[C@@H]2[C@H](CC[C@]3(C)[C@@H]([C@H](C)CCNC(=O)NS(=O)(=O)N4CCC5(CC4)COC5)CC[C@@H]23)[C@@]2(C)CC[C@@H](O)C[C@@H]12 [Example 74] | 242 | 100 to 1000 |
| CC[C@H]1[C@@H](O)[C@@H]2[C@H](CC[C@]3(C)[C@@H]([C@H](C)CCNC(=O)NS(=O)(=O)C(C)(C)CO)CC[C@@H]23)[C@@]2(C)CC[C@@H](O)C[C@@H]12 [Example 122] | 121 | 1000 to 10000 |
| CC[C@H]1[C@@H](O)[C@@H]2[C@H](CC[C@]3(C)[C@@H]([C@H](C)CNC(=O)NS(=O)(=O)c4cccc(N5CCCCC5)c4)CC[C@@H]23)[C@@]2(C)CC[C@@H](O)C[C@@H]12 [Example 121] | 199 | 100 to 1000 |
